Results reported in patent publication US12723063B2, “GIPR-agonist compounds” (Eli Lilly and Company, priority 2019, dated 2026).
*1 amine or outer side, *2 acyl side, *3 side chain or, on linkers, in order; H or OH if unused. Where a SMILES comes first, the peptide text is derived from it. Side-chain parts run from the residue outwards. [ ]: non-standard residue; d: D form. The star is where a group is joined. C20 diacid = O=C(O)CCCCCCCCCCCCCCCCCCC(=O)*; αMePhe(2-F) = C[C@](N)(Cc1ccccc1F)C(=O)O; γGlu = O=C(O)[C@H](CCC(=O)[*:2])N[*:1]; 4Pal = N[C@@H](Cc1ccncc1)C(=O)O; αMeL = CC(C)C[C@](C)(N)C(=O)O; AEEA = NCCOCCOCC(=O)O; Aib = CC(C)(N)C(=O)O

What follows are compounds tested against T1, human GIPR (Homo sapiens, UniProt P48546) (assay: [125I]-GIP binding, SPA with WGA beads, 0.1% bacitracin). Details: geometric mean, read-out: hGIPR Ki.
T1 construct: expressed in transfected cells; crude membranes
T1 sequence (P48546 22-466): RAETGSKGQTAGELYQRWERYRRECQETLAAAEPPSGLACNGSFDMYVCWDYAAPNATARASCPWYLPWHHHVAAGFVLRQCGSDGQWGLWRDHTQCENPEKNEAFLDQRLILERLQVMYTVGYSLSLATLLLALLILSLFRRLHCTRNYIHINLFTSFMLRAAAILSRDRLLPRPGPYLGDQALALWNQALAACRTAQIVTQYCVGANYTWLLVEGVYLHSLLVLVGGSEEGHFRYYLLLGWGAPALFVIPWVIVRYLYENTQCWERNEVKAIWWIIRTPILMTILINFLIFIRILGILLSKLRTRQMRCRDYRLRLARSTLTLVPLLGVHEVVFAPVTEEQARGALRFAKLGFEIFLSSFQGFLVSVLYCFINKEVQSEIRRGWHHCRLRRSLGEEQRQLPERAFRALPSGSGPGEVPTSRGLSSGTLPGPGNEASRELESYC
Procedure, shortened: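 Ki values are geometric means (SEM, n independent days), derived from four-parameter nonlinear regression of IC50. Membranes came from hGIPR-expressing CHO cells.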
With `CC[C@H](C)[C@H](NC(=O)[C@H](Cc1ccccc1)NC(=O)[C@@H](NC(=O)CNC(=O)[C@H](CCC(=O)O)NC(=O)C(C)(C)NC(=O)[C@@H](N)Cc1ccc(O)cc1)[C@@H](C)O)C(=O)N[C@@H](CO)C(=O)N[C@@H](CC(=O)O)C(=O)N[C@@H](Cc1ccc(O)cc1)C(=O)N[C@@H](CO)C(=O)N[C@H](C(=O)N[C@@](C)(CC(C)C)C(=O)N[C@@H](CC(C)C)C(=O)N[C@@H](CC(=O)O)C(=O)N[C@@H](CCCCN)C(=O)N[C@@H](CCCCNC(=O)COCCOCCNC(=O)COCCOCCNC(=O)CC[C@H](NC(=O)CCCCCCCCCCCCCCCCC(=O)O)C(=O)O)C(=O)N[C@@H](Cc1c[nH]cn1)C(=O)N[C@@H](CCC(N)=O)C(=O)NC(C)(C)C(=O)N[C@@H](CC(=O)O)C(=O)N[C@@H](Cc1ccccc1)C(=O)N[C@H](C(=O)N[C@@H](CCC(=O)O)C(=O)N[C@@H](Cc1ccncc1)C(=O)N[C@@H](CC(C)C)C(=O)N[C@@H](CC(C)C)C(=O)N[C@@H](C)C(=O)NCC(=O)NCC(=O)N1CCC[C@H]1C(=O)N[C@@H](CO)C(=O)N[C@@H](CO)C(=O)NCC(=O)N[C@@H](C)C(=O)N1CCC[C@H]1C(=O)N1CCC[C@H]1C(=O)N1CCC[C@H]1C(=O)N[C@@H](CO)C(N)=O)C(C)C)[C@@H](C)CC` [Example 49] the Ki was 0.0512 nM.
`CC[C@H](C)[C@H](NC(=O)[C@H](CO)NC(=O)[C@H](Cc1ccc(O)cc1)NC(=O)[C@H](CC(=O)O)NC(=O)[C@H](CO)NC(=O)[C@@H](NC(=O)[C@](C)(Cc1ccccc1F)NC(=O)[C@@H](NC(=O)CNC(=O)[C@H](CCC(=O)O)NC(=O)C(C)(C)NC(=O)[C@@H](N)Cc1ccc(O)cc1)[C@@H](C)O)[C@@H](C)CC)C(=O)N[C@@H](C)C(=O)N[C@@H](CC(C)C)C(=O)N[C@@H](CC(=O)O)C(=O)N[C@@H](CCCCN)C(=O)N[C@@H](CCCCNC(=O)COCCOCCNC(=O)COCCOCCNC(=O)CC[C@H](NC(=O)CCCCCCCCCCCCCCCCCCC(=O)O)C(=O)O)C(=O)N[C@@H](Cc1c[nH]cn1)C(=O)N[C@@H](CCC(N)=O)C(=O)NC(C)(C)C(=O)N[C@@H](CC(=O)O)C(=O)N[C@@H](Cc1ccccc1)C(=O)N[C@H](C(=O)N[C@@H](CCC(=O)O)C(=O)N[C@@H](Cc1ccncc1)C(=O)N[C@@H](CC(C)C)C(=O)N[C@@H](CC(C)C)C(=O)N[C@@H](CCC(=O)O)C(=O)NCC(=O)NCC(=O)N1CCC[C@H]1C(=O)N[C@@H](CO)C(=O)N[C@@H](CO)C(=O)NCC(=O)N[C@@H](C)C(=O)N1CCC[C@H]1C(=O)N1CCC[C@H]1C(=O)N1CCC[C@H]1C(=O)N[C@@H](CO)C(N)=O)C(C)C` [Example 39] (H-Y[Aib]EGT[αMePhe(2-F)]ISDYSIALDKK([AEEA-AEEA-γGlu-C20 diacid])HQ[Aib]DFVE[4Pal]LLEGGPSSGAPPPS-NH2) gave a Ki of 0.0444 nM.
Work on `CC[C@H](C)[C@H](NC(=O)[C@H](CO)NC(=O)[C@H](Cc1ccc(O)cc1)NC(=O)[C@H](CC(=O)O)NC(=O)[C@H](CO)NC(=O)[C@@H](NC(=O)[C@](C)(Cc1ccccc1F)NC(=O)[C@@H](NC(=O)CNC(=O)[C@H](CCC(=O)O)NC(=O)C(C)(C)NC(=O)[C@@H](N)Cc1ccc(O)cc1)[C@@H](C)O)[C@@H](C)CC)C(=O)N[C@@H](C)C(=O)N[C@@H](CC(C)C)C(=O)N[C@@H](CC(=O)O)C(=O)N[C@@H](CCCCN)C(=O)N[C@@H](CCCCNC(=O)COCCOCCNC(=O)COCCOCCNC(=O)CC[C@H](NC(=O)CCCCCCCCCCCCCCCCCCC(=O)O)C(=O)O)C(=O)N[C@@H](Cc1c[nH]cn1)C(=O)N[C@@H](CCC(N)=O)C(=O)NC(C)(C)C(=O)N[C@@H](CC(=O)O)C(=O)N[C@@H](Cc1ccccc1)C(=O)N[C@H](C(=O)N[C@@H](CCC(=O)O)C(=O)N[C@@H](Cc1ccc(O)cc1)C(=O)N[C@@H](CC(C)C)C(=O)N[C@@H](CC(C)C)C(=O)N[C@@H](CCC(=O)O)C(=O)N[C@H](C(=O)NCC(=O)N1CCC[C@H]1C(=O)N[C@@H](CO)C(=O)N[C@@H](CO)C(=O)NCC(=O)N[C@@H](C)C(=O)N1CCC[C@H]1C(=O)N1CCC[C@H]1C(=O)N1CCC[C@H]1C(=O)N[C@@H](CO)C(N)=O)[C@@H](C)O)C(C)C` [Example 36] (H-Y[Aib]EGT[αMePhe(2-F)]ISDYSIALDKK([AEEA-AEEA-γGlu-C20 diacid])HQ[Aib]DFVEYLLETGPSSGAPPPS-NH2) yielded a Ki of 0.0683 nM.
In the case of `CC[C@H](C)[C@H](NC(=O)[C@H](Cc1ccccc1)NC(=O)[C@@H](NC(=O)CNC(=O)[C@H](CCC(=O)O)NC(=O)C(C)(C)NC(=O)[C@@H](N)Cc1ccc(O)cc1)[C@@H](C)O)C(=O)N[C@@H](CO)C(=O)N[C@@H](CC(=O)O)C(=O)N[C@@H](Cc1ccc(O)cc1)C(=O)N[C@@H](CO)C(=O)N[C@H](C(=O)N[C@@](C)(CC(C)C)C(=O)N[C@@H](CC(C)C)C(=O)N[C@@H](CC(=O)O)C(=O)N[C@@H](CCCCN)C(=O)N[C@@H](CCCCNC(=O)COCCOCCNC(=O)COCCOCCNC(=O)CC[C@H](NC(=O)CCCCCCCCCCCCCCCCCCC(=O)O)C(=O)O)C(=O)N[C@@H](Cc1c[nH]cn1)C(=O)N[C@@H](CCC(N)=O)C(=O)NC(C)(C)C(=O)N[C@@H](CC(=O)O)C(=O)N[C@@H](Cc1ccccc1)C(=O)N[C@H](C(=O)N[C@@H](CCC(=O)O)C(=O)N[C@@H](Cc1c[nH]c2ccccc12)C(=O)N[C@@H](CC(C)C)C(=O)N[C@@H](CC(C)C)C(=O)N[C@@H](CCC(=O)O)C(=O)N[C@H](C(=O)NCC(=O)N1CCC[C@H]1C(=O)N[C@@H](CO)C(=O)N[C@@H](CO)C(=O)NCC(=O)N[C@@H](C)C(=O)N1CCC[C@H]1C(=O)N1CCC[C@H]1C(=O)N1CCC[C@H]1C(=O)N[C@@H](CO)C(N)=O)[C@@H](C)O)C(C)C)[C@@H](C)CC` [Example 71] (H-Y[Aib]EGTFISDYSI[αMeL]LDKK([AEEA-AEEA-γGlu-C20 diacid])HQ[Aib]DFVEWLLETGPSSGAPPPS-NH2), the Ki is reported as 0.0422 nM.
Work on `CC[C@H](C)[C@H](NC(=O)[C@H](Cc1ccccc1)NC(=O)[C@@H](NC(=O)CNC(=O)[C@H](CCC(=O)O)NC(=O)C(C)(C)NC(=O)[C@@H](N)Cc1ccc(O)cc1)[C@@H](C)O)C(=O)N[C@@H](CO)C(=O)N[C@@H](CC(=O)O)C(=O)N[C@@H](Cc1ccc(O)cc1)C(=O)N[C@@H](CO)C(=O)N[C@H](C(=O)N[C@@](C)(CC(C)C)C(=O)N[C@@H](CC(C)C)C(=O)N[C@@H](CC(=O)O)C(=O)N[C@@H](CCCCN)C(=O)N[C@@H](CCCCNC(=O)COCCOCCNC(=O)COCCOCCNC(=O)CC[C@H](NC(=O)CCCCCCCCCCCCCCCCCCC(=O)O)C(=O)O)C(=O)N[C@@H](Cc1c[nH]cn1)C(=O)N[C@@H](CCC(N)=O)C(=O)NC(C)(C)C(=O)N[C@@H](CCC(=O)O)C(=O)N[C@@H](Cc1ccccc1)C(=O)N[C@H](C(=O)N[C@@H](CCC(=O)O)C(=O)N[C@@H](Cc1ccncc1)C(=O)N[C@@H](CC(C)C)C(=O)N[C@@H](CC(C)C)C(=O)N[C@@H](C)C(=O)NCC(=O)NCC(=O)N1CCC[C@H]1C(=O)N[C@@H](CO)C(=O)N[C@@H](CO)C(=O)NCC(=O)N[C@@H](C)C(=O)N1CCC[C@H]1C(=O)N1CCC[C@H]1C(=O)N1CCC[C@H]1C(=O)N[C@@H](CO)C(N)=O)C(C)C)[C@@H](C)CC` [Example 52] yielded a Ki of 0.0372 nM.
With `CC[C@H](C)[C@H](NC(=O)[C@H](Cc1ccccc1)NC(=O)[C@@H](NC(=O)CNC(=O)[C@H](CCC(=O)O)NC(=O)C(C)(C)NC(=O)[C@@H](N)Cc1ccc(O)cc1)[C@@H](C)O)C(=O)N[C@@H](CO)C(=O)N[C@@H](CC(=O)O)C(=O)N[C@@H](Cc1ccc(O)cc1)C(=O)N[C@@H](CO)C(=O)N[C@H](C(=O)N[C@@](C)(CC(C)C)C(=O)N[C@@H](CC(C)C)C(=O)N[C@@H](CC(=O)O)C(=O)N[C@@H](CCCCN)C(=O)N[C@@H](CCCCNC(=O)COCCOCCNC(=O)COCCOCCNC(=O)CC[C@H](NC(=O)CCCCCCCCCCCCCCCCCCC(=O)O)C(=O)O)C(=O)N[C@@H](Cc1c[nH]cn1)C(=O)N[C@@H](CCC(N)=O)C(=O)NC(C)(C)C(=O)N[C@@H](CC(=O)O)C(=O)N[C@@H](Cc1ccccc1)C(=O)N[C@H](C(=O)N[C@@H](CCC(=O)O)C(=O)N[C@@H](Cc1ccncc1)C(=O)N[C@@H](CC(C)C)C(=O)N[C@@H](CC(C)C)C(=O)N[C@@H](CCC(=O)O)C(=O)N[C@H](C(=O)NCC(=O)N1CCC[C@H]1C(=O)N[C@@H](CO)C(=O)N[C@@H](CO)C(=O)NCC(=O)N[C@@H](C)C(=O)N1CCC[C@H]1C(=O)N1CCC[C@H]1C(=O)N1CCC[C@H]1C(=O)N[C@@H](CO)C(N)=O)[C@@H](C)O)C(C)C)[C@@H](C)CC` [Example 45] (H-Y[Aib]EGTFISDYSI[αMeL]LDKK([AEEA-AEEA-γGlu-C20 diacid])HQ[Aib]DFVE[4Pal]LLETGPSSGAPPPS-NH2) the Ki was 0.0663 nM.
`CC[C@H](C)[C@H](NC(=O)[C@H](CO)NC(=O)[C@H](Cc1ccc(O)cc1)NC(=O)[C@H](CC(=O)O)NC(=O)[C@H](CO)NC(=O)[C@@H](NC(=O)[C@](C)(Cc1ccccc1F)NC(=O)[C@@H](NC(=O)CNC(=O)[C@H](CCC(=O)O)NC(=O)C(C)(C)NC(=O)[C@@H](N)Cc1ccc(O)cc1)[C@@H](C)O)[C@@H](C)CC)C(=O)N[C@@H](C)C(=O)N[C@@H](CC(C)C)C(=O)N[C@@H](CC(=O)O)C(=O)N[C@@H](CCCCN)C(=O)N[C@@H](CCCCNC(=O)COCCOCCNC(=O)COCCOCCNC(=O)CC[C@H](NC(=O)CCCCCCCCCCCCCCCCCCC(=O)O)C(=O)O)C(=O)N[C@@H](Cc1c[nH]cn1)C(=O)N[C@@H](CCC(N)=O)C(=O)NC(C)(C)C(=O)N[C@@H](CC(=O)O)C(=O)N[C@@H](Cc1ccccc1)C(=O)N[C@H](C(=O)N[C@@H](CCC(=O)O)C(=O)N[C@@H](Cc1ccncc1)C(=O)N[C@@H](CC(C)C)C(=O)N[C@@H](CC(C)C)C(=O)N[C@@H](CCC(=O)O)C(=O)N[C@H](C(=O)NCC(=O)N1CCC[C@H]1C(=O)N[C@@H](CO)C(=O)N[C@@H](CO)C(=O)NCC(=O)N[C@@H](C)C(=O)N1CCC[C@H]1C(=O)N1CCC[C@H]1C(=O)N1CCC[C@H]1C(=O)N[C@@H](CO)C(N)=O)[C@@H](C)O)C(C)C` [Example 38] (H-Y[Aib]EGT[αMePhe(2-F)]ISDYSIALDKK([AEEA-AEEA-γGlu-C20 diacid])HQ[Aib]DFVE[4Pal]LLETGPSSGAPPPS-NH2) gave a Ki of 0.0588 nM.
